Like-named read-outs stand apart in the source and are kept apart here.
Key:
[1] = Ischemia-reperfusion model: serum creatinine; type: in vivo, pig; details: for baseline creatinine level / creatinine level: serum, mean±SD; for baseline creatinine level: prior to contrast medium administration; for creatinine level: twenty four hours after ischemia-reperfusion, 200 ml contrast
Source text: Sedation, anesthesia and instrumentation of the pigs were accomplished in accordance to the dose escalation study. All pigs received a bolus of 2000 units of heparin sulfate after obtaining femoral artery access. A guide wire (PT2, 0.014″×185 cm, Boston Scientific, Natick, Mass.) was then advanced into the left anterior descending (LAD) coronary artery followed by inflation of a balloon (Monorail Maverick, 2.5×15 mm, Boston Scientific) in its mid-portion, just distal to the second diagonal branch. Total occlusion was confirmed by contrast injections after increasing balloon pressures in 1 atm increments. […] Throughout the experiment, the animals were monitored by continuous digital ECG recordings and guide catheter pressure recordings. Digital cineangiograpic recordings were obtained in straight anterioposterior projections. A total of 200 ml of contrast medium was administered to each animal. Approximately half of the contrast volume was used during diagnostic angiography and insertion of the guidewire into the LAD. The remaining contrast was injected after deflation of the balloon during the reperfusion period. After 20-30 minutes of reperfusion, catheter, balloon and guide wire were withdrawn. An Angio-Seal 6-French femoral artery closure device (St. Jude Medical, St. Paul, Minn.) was deployed and the Isoflurane was discontinued. After 30 minutes the ECG recording was stopped and the animals were extubated and transferred to the animal housing facility. No animal was lost during the housing period. Serum was collected prior to contrast exposure and 24 hours after infarction and analyzed for creatinine. An attempt was also made to assay Cystatin C as a second renal marker. However, Cystatin C was undetectable in pig serum.

[2] = system: pig model of myocardial ischemia and reperfusion; assay: Ischemia-reperfusion model: area at risk and infarct size (Evans Blue / TTC staining); type: in vivo; details: for area at risk as a percentage of ventricular myocardium / infarct size as a percentage of the area at risk / infarct size as percent of ventricular myocardium (TTC staining): 60 min LAD occlusion, 24 h reperfusion, 200 ml contrast, NAC 11.3 mg/mL, n=5, mean±SD
Source text: Sedation, anesthesia and instrumentation of the pigs were accomplished in accordance to the dose escalation study. All pigs received a bolus of 2000 units of heparin sulfate after obtaining femoral artery access. A guide wire (PT2, 0.014″×185 cm, Boston Scientific, Natick, Mass.) was then advanced into the left anterior descending (LAD) coronary artery followed by inflation of a balloon (Monorail Maverick, 2.5×15 mm, Boston Scientific) in its mid-portion, just distal to the second diagonal branch. Total occlusion was confirmed by contrast injections after increasing balloon pressures in 1 atm increments. Total occlusion time was 60 minutes. Throughout the experiment, the animals were monitored by continuous digital ECG recordings and guide catheter pressure recordings. Digital cineangiograpic recordings were obtained in straight anterioposterior projections. A total of 200 ml of contrast medium was administered to each animal. Approximately half of the contrast volume was used during diagnostic angiography and insertion of the guidewire into the LAD. The remaining contrast was injected after deflation of the balloon during the reperfusion period. After 20-30 minutes of reperfusion, catheter, balloon and guide wire were withdrawn. An Angio-Seal 6-French femoral artery closure device (St. Jude Medical, St. Paul, Minn.) was deployed and the Isoflurane was discontinued. After 30 minutes the ECG recording was stopped and the animals were extubated and transferred to the animal housing facility. No animal was lost during the housing period. Twenty four hours later the animals were sedated and intubated. The thoracic cavity was opened by a midline sternotomy and ligatures were placed at the site of the proximal balloon occlusion, the aortic arch branches and the descending aorta. The right carotid artery was cannulated and a plastic catheter advanced into the aortic root. […] The vessels were occluded in the following order: LAD, aortic arch branches and descending aorta. The dye was then injected at a perfusion pressure of 120 mmHg until the myocardium was stained. […] In the NAC group two animals could not be used for the myocardial infarction analysis (insufficient Evans Blue staining, unsuccessful electrical cardioversion). Evans Blue stained hearts were harvested and the atria were removed. The ventricles were sliced into one centimeter slices in a bread loaf fashion, with the first slice at the apex. At least five slices could be obtained in all hearts. The basal surfaces of the slices were sequentially imaged. Small samples of myocardium from areas of necrosis, area at risk and normal left ventricular myocardium were obtained from the apical side of the second and third slice and stored for additional analyses. […] The basal surfaces were then re-imaged. Area analysis (planimetry) was performed with the NIH-Image program (Scion Image Version 4.0.2). The size of the area at risk and infarct size for each slice was determined by multiplying the mass of the slice by the fraction of area at risk or by the fraction of area of infarction. Total infarct size and the area at risk size were expressed as a percentage of biventricular mass to account for the anterior right ventricular infarction.

myocyte nuclei = assay: Ischemia-reperfusion model: TUNEL assay for apoptosis in myocardium; type: in vivo, pig; details: for nuclei stained positive for apoptosis (TUNEL): infarct tissue; for nuclei stained positive for apoptosis (TUNEL) / nuclei stained TUNEL positive: mean±SD; for nuclei stained TUNEL positive: non-infarcted area at risk
Source text: Sedation, anesthesia and instrumentation of the pigs were accomplished in accordance to the dose escalation study. All pigs received a bolus of 2000 units of heparin sulfate after obtaining femoral artery access. A guide wire (PT2, 0.014″×185 cm, Boston Scientific, Natick, Mass.) was then advanced into the left anterior descending (LAD) coronary artery followed by inflation of a balloon (Monorail Maverick, 2.5×15 mm, Boston Scientific) in its mid-portion, just distal to the second diagonal branch. Total occlusion was confirmed by contrast injections after increasing balloon pressures in 1 atm increments. Total occlusion time was 60 minutes. Throughout the experiment, the animals were monitored by continuous digital ECG recordings and guide catheter pressure recordings. Digital cineangiograpic recordings were obtained in straight anterioposterior projections. TUNEL assays were performed on samples from […] area at risk and infarcted tissue to investigate if NAC reduces ischemia-reperfusion induced apoptosis. A total of four samples from two control animals and six samples from three NAC treated animals were analyzed. Tissue sections were deparaffinized and permeabilized with proteinase K (25 μg/ml in 100 mM Tris.HCl). An in situ apoptotic cell death detection kit (TMR red; Roche Applied Bio Sciences, Indianapolis, Ind.) based on the TUNEL assay was used to detect apoptotic cells. Sections were mounted with Vectashield mounting medium containing 4′,6-diamidino-2-phenylindole (DAPI; Vector Laboratories, Burlingame, Calif.) as a nuclear counterstain. Sections were examined with a Zeiss Axiovert 200 microscope and Zeiss LSM 510 META laser scanning confocal microscope. The percentage of apoptotic nuclei per section was calculated by counting the total number of TUNEL-staining nuclei divided by the total number of DAPI-positive nuclei in 10 randomly selected fields at ×40 magnification (14).

[3] = system: pig model of myocardial ischemia and reperfusion; assay: Ischemia-reperfusion model: periprocedural arrhythmias (VT, VF, DCCV); type: in vivo; details: 200 ml contrast, NAC 11.3 mg/mL
Source text: (§1) Sedation, anesthesia and instrumentation of the pigs were accomplished in accordance to the dose escalation study. All pigs received a bolus of 2000 units of heparin sulfate after obtaining femoral artery access. A guide wire (PT2, 0.014″×185 cm, Boston Scientific, Natick, Mass.) was then advanced into the left anterior descending (LAD) coronary artery followed by inflation of a balloon (Monorail Maverick, 2.5×15 mm, Boston Scientific) in its mid-portion, just distal to the second diagonal branch. Total occlusion was confirmed by contrast injections after increasing balloon pressures in 1 atm increments. Total occlusion time was 60 minutes. Throughout the experiment, the animals were monitored by continuous digital ECG recordings and guide catheter pressure recordings. Digital cineangiograpic recordings were obtained in straight anterioposterior projections.
Blood pressure, heart rate, and high-resolution ECG were continuously recorded beginning at the time of coronary occlusion and for 30 minutes following reperfusion. The occurrence of ventricular tachycardia during coronary occlusion or reperfusion (defined as more than 4 consecutive ventricular ectopic beats) and ventricular fibrillation were recorded. […] (DCCV) was provided for ventricular fibrillation and ventricular tachycardia with hemodynamic instability. No antiarrhythmic medications were used.

[4] = system: pig model of myocardial ischemia and reperfusion; assay: Ischemia-reperfusion model: infarct morphology (circumference/area index); type: in vivo; details: for morphologic appearance of the infarcted area: TTC stained sections
Source text: as §1, with “projections. In order to quantify visual differences in infarct morphology, a circumference/area index of the infarcted myocardium using TTC stained sections was calculated.” for “projections.”

[5] = Intracoronary NAC dose escalation: ECG (QT interval, arrhythmias, heart rate)
Description: Accordingly, the effects of escalating doses of intracoronary NAC (Cumberland Pharmaceuticals, Nashville, Tenn.) mixed with contrast medium on blood pressure and cardiac rhythm were tested in two healthy farm raised pigs (23 and 26 kg).
The pigs were anesthetized with Isoflurane after intramuscular pre-medication with Ketamine (20 mg/kg). After endotracheal intubation they were ventilated (Harvard Apparatus, Holliston, Mass.) with a mixture of oxygen and 1-3 percent isoflurane. A surgical level of anesthesia was confirmed prior to obtaining percutaneous femoral arterial access using a 6-French sheath. A JR 4 or HS guide catheter was inserted and placed at the ostium of the left main coronary artery. Continuous twelve-lead ECG and catheter based pressures were digitally recorded with the administration of bolus injections of NAC. The initial dose was 56.6 mg of NAC diluted in 5 mL of. Iopamidol (Isovue 370®, Bracco Pharmaceuticals, Princeton, N.J.). This dose of 11.3 mg NAC/mL is referred to as the target dose because it would deliver a dose of 1850 milligrams of NAC to an average patient undergoing a percutaneous coronary intervention. […] Following at least five injections of the target dose, a total of four high dose injections were performed, two of 250 mg per 5 mL bolus and two of 500 mg NAC per 5 mL bolus (equal to 4.4× and 8.8× target dose). […] Blood pressure and QT interval were analyzed at the end of three succeeding respiratory cycles (6, 12 and 18 seconds after injection) and are reported as a mean percent change from baseline.
In the dose escalation study the effect of each injection on blood pressure and QT interval was expressed as a percentage change from the immediately preceding baseline and analyzed by a paired student's t-test. A p-value of less than 0.05 was accepted as statistically significant.

[6] = 250 mg NAC per 5 mL bolus, six seconds
[7] = 500 mg NAC per 5 mL bolus, six seconds
[8] = 5 ml contrast with target dose NAC 11.3 mg/mL, 6 seconds after injection
[9] = target dose NAC 11.3 mg/mL, 18 seconds after injection

Question: Which “reduction of the rise in post procedure creatinine levels” value ([1]; NAC provided during contrast administration vs contrast-only) does the source give for CC(=O)N[C@@H](CS)C(=O)O [NAC, N-acetylcysteine] here?
Answer: The value was “about 60%”.

Question: And the baseline creatinine level [1]?
Answer: Its baseline creatinine level is 1.29 ± 0.15 mg/dL.

Question: And the creatinine level [1]?
Answer: Its creatinine level is 1.49 ± 0.06 mg/dL.

Question: And the “area at risk as a percentage of ventricular myocardium” value [2]?
Answer: The value was 18.4±1.8%.

Question: And the “infarct size as a percentage of the area at risk” value [2]?
Answer: Its value is 44.7±12.4%.

Question: What about the “infarct size as percent of ventricular myocardium (TTC staining)” value [2] of the same compound?
Answer: Its value is 8.2±2.3%.

Question: And the “reduction in infarct size” value ([2]; NAC-contrast vs contrast-only)?
Answer: The value was “approximately 50%”.

Question: And the “nuclei stained positive for apoptosis (TUNEL)” value (myocyte nuclei)?
Answer: The value was 33.0±3.7%.

Question: And the “nuclei stained TUNEL positive” value (myocyte nuclei)?
Answer: Its value is 1.6±1.6%.

Question: And the “TUNEL positive myocyte nuclei” value (myocyte nuclei; non-ischemic myocardium (non-LAD territories), NAC treated vs control)?
Answer: Its value is “without a significant difference”.

Question: What about the “ventricular arrhythmias during ischemia-reperfusion” value [3] of the same compound?
Answer: Its value is “developed ventricular tachycardia, fibrillation or both”.

Question: And the “morphologic appearance of the infarcted area” value [4]?
Answer: Its value is “mottled appearance”.

Question: And the “ratio of infarct circumference to infarct area” value ([4]; compared with control animals)?
Answer: Its value is “greater”.

Question: And the “reduction of diastolic blood pressure” value [6]?
Answer: Its value is 26%.

Question: And the “reduction of systolic blood pressure” value [6]?
Answer: The value was 14%.

Question: What about the “time to recovery of diastolic pressures” value (250 mg and 500 mg bolus) of the same compound?
Answer: Its value is 45 to 60 s.

Question: What about the systolic blood pressure (250 mg and 500 mg bolus, after 18 seconds) of the same compound?
Answer: The systolic blood pressure was “normalized”.

Question: And the “reduction of diastolic blood pressure” value [7]?
Answer: Its value is 43%.

Question: And the “reduction of systolic blood pressure” value [7]?
Answer: The value was 48%.

Question: And the “reduction in diastolic blood pressure” value [8]?
Answer: The value was 17%.

Question: And the “reduction of systolic blood pressure” value [8]?
Answer: The value was 5%.

Question: What about the “time to complete normalization of blood pressure” value (target dose NAC 11.3 mg/mL) of the same compound?
Answer: Its value is 45 to 60 s.

Question: And the “decrease in diastolic pressure” value [9]?
Answer: Its value is “about 7%”.

Question: What about the systolic pressure [9] of the same compound?
Answer: The systolic pressure was “returned to pre-injection pressures”.

Question: And the QT interval prolongation ([5]; 250 mg NAC bolus, 18 seconds)?
Answer: Its QT interval prolongation is “normalized”.

Question: And the QT interval prolongation ([5]; 250 mg NAC bolus, immediately after injection)?
Answer: The QT interval prolongation was 16%.

Question: What about the “time to complete recovery of QT interval to baseline” value ([5]; 500 mg NAC bolus) of the same compound?
Answer: The value was 45 to 60 s.

Question: And the QT interval prolongation ([5]; 500 mg NAC bolus, 18 seconds)?
Answer: The QT interval prolongation was 9%.

Question: And the QT interval prolongation ([5]; 500 mg NAC bolus, immediately after injection)?
Answer: Its QT interval prolongation is 35%.

Question: What about the “arrhythmias or changes in heart rate after injections of contrast containing NAC” value ([5]; healthy pigs, intracoronary bolus injections) of the same compound?
Answer: The value was “did not cause any arrhythmias or changes in heart rate”.

Question: What about the QT interval prolongation ([5]; target dose 11.3 mg/mL, eighteen seconds after injection) of the same compound?
Answer: The QT interval prolongation was “significant QT prolongation was no longer present”.

Question: And the QT interval prolongation ([5]; target dose 11.3 mg/mL, six seconds after injection)?
Answer: Its QT interval prolongation is 10%.

Question: Which results are given for C[C@H](O)C(=O)Nc1c(I)c(C(=O)NC(CO)CO)c(I)c(C(=O)NC(CO)CO)c1I [Iopamidol]?
Answer: increase in creatinine levels ([1]; 200 ml of contrast without periprocedural hydration, 24 h): 37%; baseline creatinine level [1]: 1.32 ± 0.26 mg/dL; creatinine level [1]: 1.82 ± 0.24 mg/dL; area at risk as a percentage of ventricular myocardium [2]: 15.1±4.8%; infarct size as a percentage of the area at risk [2]: 92.4±6.3%; infarct size as percent of ventricular myocardium (TTC staining) [2]: 13.9±4.5%; nuclei stained positive for apoptosis (TUNEL) (myocyte nuclei): 35.8±5.7%; nuclei stained TUNEL positive (myocyte nuclei): 32.1±4.0%; ventricular arrhythmias during ischemia-reperfusion [3]: none of the control ischemia-reperfusion animals developed ventricular fibrillation or required DCCV; morphologic appearance of the infarcted area [4]: homogeneous with discrete borders; blood pressure effects of control injections (contrast only, intracoronary injection): did not show such effects; QT changes ([5]; contrast injections without NAC): No significant QT changes

— patent publication US20100266501A1, “METHODS AND COMPOSITIONS FOR ORGAN PROTECTION” (University Of Vermont and State Agricltural College, priority 2006, published 2010)
